Several values for one entry are separate records, joined by “and”; a condition that tells them apart may be missing. Equal values may be shown once. Entries after “also recorded” stand apart in the source; their conditions may differ. Read-outs that look alike come from different tables or passages of the source.
Legend:
WI-38 = assay: MTT cytotoxicity against normal fibroblast cells WI-38; conditions: Homo sapiens, WI-38, read-out: IC50 WI-38
MCF7 = assay: MTT anti-proliferative assay, MCF7; format: cell-based; conditions: Homo sapiens, mean ± SD of three independent experiments
Procedure: (§1) Doxorubicin (DOX) was used as a reference drug.
(§2) Cell lines were obtained from ATCC via Holding company for biological products and vaccines (VACSERA), Cairo, Egypt. Doxorubicin (Dox.) is used as a standard anticancer drug. This colorimetric assay is based on the conversion of yellow (MTT) to a purple formazan derivative by mitochondrial succinate dehydrogenase in viable cells. This colorimetric assay was performed according to the reported method[36],[37].

HePG-2 = assay: MTT anti-proliferative assay, HepG-2; conditions: Homo sapiens, HepG2, read-out: IC50 HePG-2
HCT116 = assay: MTT anti-proliferative assay, HCT116; format: cell-based; conditions: Homo sapiens, HCT-116, mean ± SD of three independent experiments
Procedure: as §1, §2

EGFR = conditions: cited from earlier work
MCF-7 = conditions: cited from earlier work
EGFR-TK = EGFR-TK (Homo sapiens, UniProt P00533); assay: EGFR-TK inhibition assay
EGFR-TK, sequence (P00533 25-1210): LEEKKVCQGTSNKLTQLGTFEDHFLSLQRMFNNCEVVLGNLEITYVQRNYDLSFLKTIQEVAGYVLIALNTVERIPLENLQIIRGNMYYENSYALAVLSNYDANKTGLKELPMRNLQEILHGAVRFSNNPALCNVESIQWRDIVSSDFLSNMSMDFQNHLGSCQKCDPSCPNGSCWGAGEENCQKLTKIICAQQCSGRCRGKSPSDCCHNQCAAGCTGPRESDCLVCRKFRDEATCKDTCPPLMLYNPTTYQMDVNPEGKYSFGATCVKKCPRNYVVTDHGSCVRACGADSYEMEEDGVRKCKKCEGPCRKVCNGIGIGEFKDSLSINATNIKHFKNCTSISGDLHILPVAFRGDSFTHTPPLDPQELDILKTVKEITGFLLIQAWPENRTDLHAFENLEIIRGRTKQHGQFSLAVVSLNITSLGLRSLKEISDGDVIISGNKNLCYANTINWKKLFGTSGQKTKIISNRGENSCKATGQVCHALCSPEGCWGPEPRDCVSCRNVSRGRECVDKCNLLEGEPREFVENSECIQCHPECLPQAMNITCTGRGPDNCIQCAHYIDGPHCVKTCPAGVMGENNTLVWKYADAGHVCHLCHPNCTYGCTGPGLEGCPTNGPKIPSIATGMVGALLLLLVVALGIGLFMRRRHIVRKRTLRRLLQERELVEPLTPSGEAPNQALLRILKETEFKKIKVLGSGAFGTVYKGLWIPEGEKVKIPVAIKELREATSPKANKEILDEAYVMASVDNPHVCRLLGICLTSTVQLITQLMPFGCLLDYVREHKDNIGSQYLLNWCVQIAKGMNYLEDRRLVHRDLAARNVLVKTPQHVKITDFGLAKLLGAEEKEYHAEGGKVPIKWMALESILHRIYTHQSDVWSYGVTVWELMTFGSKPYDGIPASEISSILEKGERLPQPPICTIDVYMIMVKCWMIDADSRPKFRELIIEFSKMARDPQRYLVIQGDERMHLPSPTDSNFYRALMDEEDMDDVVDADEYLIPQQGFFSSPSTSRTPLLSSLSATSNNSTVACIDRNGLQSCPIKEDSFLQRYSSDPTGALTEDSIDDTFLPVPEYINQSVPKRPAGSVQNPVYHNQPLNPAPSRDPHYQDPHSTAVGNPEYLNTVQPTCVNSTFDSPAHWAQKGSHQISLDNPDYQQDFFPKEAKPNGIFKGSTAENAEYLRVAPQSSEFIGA

HepG-2 cells [1] = assay: Intracellular ROS accumulation assay (ELISA); format: cell-based, human; conditions: for ROS: HepG-2, mean ± SD of three experiments, control 105.6 ± 10.8
Excerpt: Under both physiological and pathological circumstances, reactive oxygen species (ROS) such H2O2 and superoxides play a significant role in the activation of apoptosis. It's interesting to note that mitochondria both produce and absorb ROS.
Intracellular reactive oxygen species (ROS) were detected by the EIAab ROS ELISA kit according to the reported method.

HER2 = HER2 (Homo sapiens, UniProt P04626); assay: HER2 inhibition assay
HER2, sequence (P04626 23-1255): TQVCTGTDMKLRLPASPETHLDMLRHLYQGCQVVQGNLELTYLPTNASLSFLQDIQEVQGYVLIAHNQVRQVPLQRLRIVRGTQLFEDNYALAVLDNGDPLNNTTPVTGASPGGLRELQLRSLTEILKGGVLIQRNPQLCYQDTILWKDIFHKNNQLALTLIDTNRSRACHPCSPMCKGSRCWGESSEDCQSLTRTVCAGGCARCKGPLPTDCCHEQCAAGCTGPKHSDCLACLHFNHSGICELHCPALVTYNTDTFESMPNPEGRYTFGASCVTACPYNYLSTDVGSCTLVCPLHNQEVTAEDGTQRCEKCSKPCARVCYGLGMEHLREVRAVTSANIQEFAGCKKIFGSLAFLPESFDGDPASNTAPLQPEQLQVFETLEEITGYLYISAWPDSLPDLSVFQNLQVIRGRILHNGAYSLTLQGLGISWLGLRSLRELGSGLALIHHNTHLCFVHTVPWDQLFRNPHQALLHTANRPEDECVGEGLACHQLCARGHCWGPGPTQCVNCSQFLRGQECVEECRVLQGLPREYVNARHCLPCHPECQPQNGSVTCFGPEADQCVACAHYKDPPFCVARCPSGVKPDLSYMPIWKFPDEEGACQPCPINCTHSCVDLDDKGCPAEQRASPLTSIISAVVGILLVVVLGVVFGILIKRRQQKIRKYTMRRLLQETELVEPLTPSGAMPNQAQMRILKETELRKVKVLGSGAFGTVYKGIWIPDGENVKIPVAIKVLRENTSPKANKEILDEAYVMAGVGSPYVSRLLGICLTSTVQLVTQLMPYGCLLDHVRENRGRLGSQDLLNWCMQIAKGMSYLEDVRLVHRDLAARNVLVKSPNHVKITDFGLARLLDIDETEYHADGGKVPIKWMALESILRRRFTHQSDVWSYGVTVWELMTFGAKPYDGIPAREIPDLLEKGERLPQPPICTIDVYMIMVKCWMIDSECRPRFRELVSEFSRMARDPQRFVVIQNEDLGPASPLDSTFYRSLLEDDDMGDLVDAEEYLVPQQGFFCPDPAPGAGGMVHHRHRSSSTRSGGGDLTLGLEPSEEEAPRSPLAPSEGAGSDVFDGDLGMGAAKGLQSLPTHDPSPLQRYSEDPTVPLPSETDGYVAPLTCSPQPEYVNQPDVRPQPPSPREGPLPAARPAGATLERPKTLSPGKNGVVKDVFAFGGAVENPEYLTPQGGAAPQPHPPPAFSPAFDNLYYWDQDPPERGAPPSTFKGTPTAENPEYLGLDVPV

HER3 = HER3 (Homo sapiens, UniProt P21860); assay: HER3 inhibition assay
HER3, sequence (P21860 20-1342): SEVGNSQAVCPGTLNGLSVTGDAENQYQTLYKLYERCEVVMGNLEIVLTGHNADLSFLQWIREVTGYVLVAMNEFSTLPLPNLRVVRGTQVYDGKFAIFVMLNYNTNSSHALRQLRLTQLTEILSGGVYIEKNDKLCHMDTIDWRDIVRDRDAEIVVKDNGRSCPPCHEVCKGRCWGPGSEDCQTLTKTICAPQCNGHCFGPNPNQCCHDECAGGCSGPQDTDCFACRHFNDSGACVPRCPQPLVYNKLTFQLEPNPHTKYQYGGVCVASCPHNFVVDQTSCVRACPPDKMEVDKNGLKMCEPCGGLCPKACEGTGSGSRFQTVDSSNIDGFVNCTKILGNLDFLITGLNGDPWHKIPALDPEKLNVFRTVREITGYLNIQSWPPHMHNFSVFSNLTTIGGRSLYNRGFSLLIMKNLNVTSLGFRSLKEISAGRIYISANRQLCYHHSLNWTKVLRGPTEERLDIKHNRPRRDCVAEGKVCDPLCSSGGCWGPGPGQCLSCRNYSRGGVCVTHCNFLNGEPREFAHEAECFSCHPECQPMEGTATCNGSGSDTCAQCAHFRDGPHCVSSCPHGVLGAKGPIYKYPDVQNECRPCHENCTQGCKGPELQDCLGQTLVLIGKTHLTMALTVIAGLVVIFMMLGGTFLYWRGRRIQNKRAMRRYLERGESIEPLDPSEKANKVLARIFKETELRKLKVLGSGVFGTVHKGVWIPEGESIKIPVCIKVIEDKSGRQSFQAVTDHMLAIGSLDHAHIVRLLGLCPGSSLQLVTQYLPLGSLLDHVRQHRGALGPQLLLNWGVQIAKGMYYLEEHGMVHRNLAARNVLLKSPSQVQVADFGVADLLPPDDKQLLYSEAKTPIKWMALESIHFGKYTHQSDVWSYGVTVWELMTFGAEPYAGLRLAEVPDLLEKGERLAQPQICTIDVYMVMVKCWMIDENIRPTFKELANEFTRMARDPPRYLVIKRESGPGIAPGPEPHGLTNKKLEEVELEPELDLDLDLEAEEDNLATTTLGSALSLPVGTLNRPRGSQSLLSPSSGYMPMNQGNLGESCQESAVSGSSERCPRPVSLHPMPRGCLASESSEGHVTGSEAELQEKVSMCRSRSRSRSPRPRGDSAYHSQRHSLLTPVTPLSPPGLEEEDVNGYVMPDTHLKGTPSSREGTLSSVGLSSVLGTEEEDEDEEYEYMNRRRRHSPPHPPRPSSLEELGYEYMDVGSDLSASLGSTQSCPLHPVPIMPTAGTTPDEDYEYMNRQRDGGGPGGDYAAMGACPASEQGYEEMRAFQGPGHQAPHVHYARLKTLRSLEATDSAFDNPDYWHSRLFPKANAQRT

[2] = tested on: BAX, BCL-2, Cyto c, Casp. 6, 7, 9 and Survivin in HepG-2 cells; assay: RT-PCR gene expression of apoptotic markers; format: cell-based, human; conditions: HepG-2, control = 1
Excerpt: The B cell lymphoma-2 (Bcl-2) family of proteins, which includes pro-apoptotic (Bax, Bak, Bid, and Bad) and anti-apoptotic (Bcl-2, Bcl-xL, and Bcl-w) proteins, mediates the mitochondrial or intrinsic apoptosis pathway. These proteins cause apoptosis by influencing the permeability of the mitochondrial membrane, which results in the release of cytochrome c into the cytosol. The Bax/Bcl-2 ratio is frequently employed as a marker of cell death and is essential for controlling mitochondrial cytochrome c release. It is thought that caspases perform critical functions in modulating the mitochondrial pathway. After cytochrome c is released into the cytosol, caspase-9 is triggered. Caspase-9 can activate effector caspases, such as caspase-3, 6 and 7, which cause cells to enter apoptosis. The various target proteins that the effector caspases cleave are widely dispersed throughout the cell, which causes the morphological modifications that are indicative of apoptosis. Apoptosis is inhibited by the anti-apoptotic protein survivin, which regulates the actions of caspase-9 and effector caspases.
Gene expression analysis was performed by using (iScriptTM OneStep RT-PCR Kit with SYBR® Green) from Bio-Rad according to reported procedure.

HepG-2 cells [3] = assay: Cell cycle analysis by PI flow cytometry; format: cell-based, human
Procedure: Cell cycle analysis for compound 5a was performed using the HepG-2 cell lines stained with propidium iodide (PI) and FACSCalibur flow cytometer as mentioned in previous reports.

HepG-2 cells [4] = assay: Annexin V-FITC/Propidium iodide dual staining apoptosis assay; format: cell-based, human; conditions: HepG-2, 24 h
Procedure: Liver HepG-2 cancer cells were used in the Annexin V-FITC/Propidium iodide dual staining assay[40] to calculate the percentage of apoptosis induced by compound 5a. As shown in Figs. 6 and Fig. 7, compound 5a induces the early apoptosis in HepG-2 after 24 h incubation by (19.61%) 41.72 folds over the untreated cells (0.47%). Also, it enhances the late apoptotic induction by 11.89% compared to untreated control (0.16%). Cumulatively, compound 5a induced total apoptosis (35.28%) 14.57 folds over the untreated cells (2.42%).
Apoptosis induction for 5a was performed using the HepG-2 cell lines and well-established Annexin 5-FITC/PI detection kit similar to the reported procedures.

HER4 = HER4 (Homo sapiens, UniProt Q15303); assay: HER4 inhibition assay
HER4, sequence (Q15303 26-1308): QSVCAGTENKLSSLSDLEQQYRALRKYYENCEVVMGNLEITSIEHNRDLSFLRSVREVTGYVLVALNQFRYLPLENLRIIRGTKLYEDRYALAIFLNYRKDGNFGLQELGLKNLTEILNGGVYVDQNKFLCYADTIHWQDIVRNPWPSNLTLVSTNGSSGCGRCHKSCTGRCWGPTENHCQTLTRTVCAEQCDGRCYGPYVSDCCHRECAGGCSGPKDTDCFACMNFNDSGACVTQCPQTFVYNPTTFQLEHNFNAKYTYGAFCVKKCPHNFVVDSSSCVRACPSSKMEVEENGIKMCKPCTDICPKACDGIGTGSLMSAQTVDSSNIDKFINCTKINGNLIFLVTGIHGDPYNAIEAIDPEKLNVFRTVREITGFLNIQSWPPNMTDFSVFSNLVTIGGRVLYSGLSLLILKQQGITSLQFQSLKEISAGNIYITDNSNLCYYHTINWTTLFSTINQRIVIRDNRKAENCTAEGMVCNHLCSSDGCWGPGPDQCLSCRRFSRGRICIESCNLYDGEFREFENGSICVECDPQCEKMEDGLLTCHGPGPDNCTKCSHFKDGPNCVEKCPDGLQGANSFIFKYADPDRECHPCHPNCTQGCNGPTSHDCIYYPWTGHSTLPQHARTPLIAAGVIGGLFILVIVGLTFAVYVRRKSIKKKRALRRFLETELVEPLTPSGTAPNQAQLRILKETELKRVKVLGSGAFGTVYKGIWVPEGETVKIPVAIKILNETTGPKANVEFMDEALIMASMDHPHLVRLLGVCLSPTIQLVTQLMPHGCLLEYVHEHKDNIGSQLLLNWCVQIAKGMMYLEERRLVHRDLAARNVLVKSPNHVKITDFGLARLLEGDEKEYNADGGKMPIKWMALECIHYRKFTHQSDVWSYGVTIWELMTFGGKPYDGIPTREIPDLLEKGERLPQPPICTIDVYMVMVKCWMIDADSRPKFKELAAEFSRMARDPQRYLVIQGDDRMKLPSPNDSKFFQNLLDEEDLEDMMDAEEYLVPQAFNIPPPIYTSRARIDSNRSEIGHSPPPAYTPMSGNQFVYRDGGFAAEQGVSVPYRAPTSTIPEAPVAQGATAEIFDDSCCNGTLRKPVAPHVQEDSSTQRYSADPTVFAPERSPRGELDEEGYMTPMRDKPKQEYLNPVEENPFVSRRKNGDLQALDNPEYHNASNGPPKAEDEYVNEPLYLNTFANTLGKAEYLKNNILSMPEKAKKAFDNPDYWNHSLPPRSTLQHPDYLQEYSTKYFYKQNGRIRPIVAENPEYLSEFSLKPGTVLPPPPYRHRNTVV

HCT116, HepG-2 and MCF7 = assay: MTT assay, all three cancer cell lines (summary range); conditions: Homo sapiens, read-out: IC50 range against all cancer cell lines

Compound	melting point [°C]	IC50 (MCF7) [µM]	IC50 (HCT116) [µM]	IC50 (WI-38) [µM]	IC50 (HePG-2) [µM]	other results
O=C(CSc1nnc(-c2ccc3nccnc3c2)o1)c1ccc([N+](=O)[O-])cc1 [II]	–	–	–	–	–	IC50 (EGFR): 0.95 µM
COc1ccc(C2=NN(C(C)=O)C(/C=C/c3ccccc3)C2)cc1 (stereo not shown) [IV]	–	–	–	–	–	IC50 (EGFR): 0.46 µM; IC50 (MCF-7): 4.33 µM
CCOC(=O)CSc1nnc(-c2ccc(OCc3ccccc3)cc2)o1 [Compound 5f., Ethyl 2-((5-(4-(benzyloxy)phenyl)-1,3,4-oxadiazol-2-yl)thio)acetate]	100 to 102	> 100	> 100	77.3 ± 3.9	91.3 ± 5	–
COc1cc2ncnc(Nc3ccc(F)c(Cl)c3)c2cc1OCCCN1CCOCC1 [Gefitinib, reference compound]	–	–	–	–	–	ROS (HepG-2 cells [1]): 260 ± 14.7 pg/mL; ROS (HepG-2 cells [1]; listed as gefitinib): 260 pg/mL
Nc1cc(-c2nnc(SCC(=O)c3ccccc3)o2)ccn1 [I]	–	–	–	–	–	IC50 (MCF-7): 0.01 µM
Nc1ccccc1-c1nnc(SCc2ccccc2)o1 [III]	–	–	–	–	–	IC50 (EGFR): 1.51 µM
NC(=O)N1N=C(c2ccncc2)CC1c1cn(-c2ccccc2)nc1-c1ccc(OCc2ccccc2)cc1 (stereo not shown) [VI]	–	–	–	–	–	IC50 (EGFR): 3.65 µM
COc1cccc2c1C(=O)c1c(O)c3c(c(O)c1C2=O)C[C@@](O)(C(=O)CO)C[C@@H]3O[C@H]1C[C@H](N)[C@H](O)[C@H](C)O1 [DOX, Doxorubicin, reference compound]	–	–	–	–	4.5 ± 0.2	–
CC(=O)N1N=C(c2ccc(-c3cncnc3)cc2)CC1c1ccc(F)cc1 (stereo not shown) [V]	–	–	–	–	–	EGFR inhibition rate (EGFR; 0.19 μM concentration): 83%; EGFR inhibition rate (EGFR; 50 μM concentration): 82%

Second part, led by results:

melting point [°C]	IC50 (MCF7) [µM]	IC50 (HCT116) [µM]	Compound	IC50 (WI-38) [µM]	IC50 (HePG-2) [µM]	other results
91 to 93	86.8 ± 4.5	75.6 ± 4.2	c1ccc(COc2ccc(-c3nnc(SC4CCCC4)o3)cc2)cc1 [Compound 5e, 2-(4-(Benzyloxy)phenyl)-5-(cyclopentylthio)-1,3,4-oxadiazole]	11.7 ± 0.9	59.3 ± 3.4	–
127 to 129	15.2 ± 1.2	10.2 ± 0.9	CC(=O)N1N=C(c2ccc(OCc3ccccc3)cc2)CC1c1cccc([N+](=O)[O-])c1 (stereo not shown) [Compound 9b, 1-(3-(4-(Benzyloxy)phenyl)-5-(3-nitrophenyl)-4,5-dihydro-1H-pyrazol-1-yl)ethan-1-one]	55.9 ± 3.2	7.83 ± 0.5	IC50 (EGFR-TK): 0.2 ± 0.01 µM
85 to 87	8.53 ± 0.6	16.2 ± 1.2	COc1ccc(C2CC(c3ccc(OCc4ccccc4)cc3)=NN2C(C)=O)cc1OC (stereo not shown) [Compound 9c, 1-(3-(4-(Benzyloxy)phenyl)-5-(3,4-dimethoxyphenyl)-4,5-dihydro-1H-pyrazol-1-yl)ethan-1-one]	49.6 ± 2.8	12.2 ± 0.9	–
108 to 110	5.97 ± 0.3	8.73 ± 0.7	O=[N+]([O-])c1cccc(C2CC(c3ccc(OCc4ccccc4)cc3)=NN2)c1 (stereo not shown) [Compound 10b, 3-(4-(Benzyloxy)phenyl)-5-(3-nitrophenyl)-4,5-dihydro-1H-pyrazole]	37.9 ± 2.3	3.98 ± 0.2	IC50 (EGFR-TK): 0.16 µM
–	78.5 ± 4.1	64.4 ± 3.7	c1ccc(COc2ccc(-c3nnc(SCc4ccccc4)o3)cc2)cc1 [Compound 5a, 2-(4-(Benzyloxy)phenyl)-5-(benzylthio)-1,3,4-oxadiazole]	53.9 ± 3	35.6 ± 2.2	ROS (HepG-2 cells [1]): 247.8 pg/mL and 247.8 ± 31.1 pg/mL; ROS Fold (HepG-2 cells [1]; HepG-2, versus control = 1): 2.34 fold; IC50 (HER2): 0.72 ± 0.028 µM; IC50 (HER3): 0.18 ± 0.006 µM; RT-PCR Fold Change Bax [2]: 4.95 fold; RT-PCR Fold Change Casp. 6 [2]: 6.67 fold; RT-PCR Fold Change Casp. 7 [2]: 7.57 fold; RT-PCR Fold Change Casp. 9 [2]: 4.23 fold; RT-PCR Fold Change Cyto c [2]: 3.82 fold; Comment (cell cycle arrest phase) (HepG-2 cells [3]; HepG-2, 24 h): arrested the cell cycle on HepG-2 at a G1/S phase; also recorded: cell cycle arrest at G1/S phase; also recorded: cell growth arrest at G1/S; %G2/M (HepG-2 cells [3]; HepG-2, IC50 concentration, 24 h, untreated control 17.05): 6.64%; %S (HepG-2 cells [3]; HepG-2, IC50 concentration, 24 h, untreated control 37.09): 41.03%; %G0-G1 (HepG-2 cells [3]; HepG-2, IC50 concentration, 24 h, untreated control 45.86): 52.33%; early apoptosis, folds over the untreated cells (HepG-2 cells [4]): 41.72 folds; total apoptosis, folds over the untreated cells (HepG-2 cells [4]): 14.57 folds; late apoptosis (Q2) (HepG-2 cells [4]; untreated 0.16%): 11.89%; early apoptosis (Q4) (HepG-2 cells [4]; untreated 0.47%): 19.61%; IC50 (HER4): 0.37 ± 0.015 µM; IC50 (EGFR-TK): 0.09 µM
125 to 127	84.3 ± 4.4	73.2 ± 4.2	Clc1ccc(CSc2nnc(-c3ccc(OCc4ccccc4)cc3)o2)cc1 [Compound 5b, 2-(4-(Benzyloxy)phenyl)-5-((4-chlorobenzyl)thio)-1,3,4-oxadiazole]	13.2 ± 1.1	38.1 ± 2.2	–
86 to 88	8.11 ± 0.6	9.94 ± 0.8	Brc1cccc(C2CC(c3ccc(OCc4ccccc4)cc3)=NN2)c1 (stereo not shown) [Compound 10a, 3-(4-(Benzyloxy)phenyl)-5-(3-bromophenyl)-4,5-dihydro-1H-pyrazole]	62.3 ± 3.4	6.32 ± 0.4	IC50 (EGFR-TK): 0.7 ± 0.03 µM
83 to 85	> 100	88.6 ± 4.8	c1ccc(COc2ccc(-c3nnc(SC4CCCCCC4)o3)cc2)cc1 [Compound 5d, 2-(4-(Benzyloxy)phenyl)-5-(cycloheptylthio)-1,3,4-oxadiazole]	46.6 ± 2.7	82.8 ± 4.5	–
130 to 132	92.2 ± 4.9	79.8 ± 4.4	Cc1ccc(CSc2nnc(-c3ccc(OCc4ccccc4)cc3)o2)cc1 [Compound 5c, 2-(4-(Benzyloxy)phenyl)-5-((4-methylbenzyl)thio)-1,3,4-oxadiazole]	> 100	71.4 ± 3.9	–
128 to 130	2.86 ± 0.1	5.55 ± 0.3	COc1ccc(C2CC(c3ccc(OCc4ccccc4)cc3)=NN2)cc1OC (stereo not shown) [Compound 10c, 3-(4-(Benzyloxy)phenyl)-5-(3,4-dimethoxyphenyl)-4,5-dihydro-1H-pyrazole]	41.2 ± 2.4	1.82 ± 0.1	IC50 (HCT116, HepG-2 and MCF7): 1.82 to 5.55 µM; IC50 (EGFR-TK): 0.27 ± 0.01 µM
93 to 95	46.1 ± 2.5	55.3 ± 3.1	CC(=O)N1N=C(c2ccc(OCc3ccccc3)cc2)CC1c1cccc(Br)c1 (stereo not shown) [Compound 9a, 1-(3-(4-(Benzyloxy)phenyl)-5-(3-bromophenyl)-4,5-dihydro-1H-pyrazol-1-yl)ethan-1-one]	85.1 ± 4.1	32.6 ± 2.1	–

— article PMC10915170, “New oxadiazole and pyrazoline derivatives as anti-proliferative agents targeting EGFR-TK: design, synthesis, biological evaluation and molecular docking study” (Scientific Reports, 2024)
